Measurements: patent US8754073B2, “Substituted piperazino-dihydrothienopyrimidines” (Boehringer Ingelheim International GmbH, priority 2007, dated 2014)

Biological target: PDE4B (Homo sapiens, UniProt Q07343)
Assay: Scintillation Proximity Assay (SPA) of PDE4B enzyme activity ([H3]-cAMP cleavage)
Format: biochemical
Settings: test substance 1 μM
Summary of the method: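 SPA read-out: [H3]-cAMP incubated with PDE4B in assay buffer for 1 h at 30 °C, with and without test compound at 1 μM. Reaction stopped by adding yttrium silicate beads that bind the [H3]-AMP product; after 45 min settling, scintillation counted. Value is % inhibition at 1 μM.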

[1] = one-hour incubation with [H3]-cAMP at 30° C.
[2] = one-hour incubation of [H3]-cAMP with PDE4B enzyme at 30° C.

Sequence of PDE4B (Q07343 whole entry, species assumed): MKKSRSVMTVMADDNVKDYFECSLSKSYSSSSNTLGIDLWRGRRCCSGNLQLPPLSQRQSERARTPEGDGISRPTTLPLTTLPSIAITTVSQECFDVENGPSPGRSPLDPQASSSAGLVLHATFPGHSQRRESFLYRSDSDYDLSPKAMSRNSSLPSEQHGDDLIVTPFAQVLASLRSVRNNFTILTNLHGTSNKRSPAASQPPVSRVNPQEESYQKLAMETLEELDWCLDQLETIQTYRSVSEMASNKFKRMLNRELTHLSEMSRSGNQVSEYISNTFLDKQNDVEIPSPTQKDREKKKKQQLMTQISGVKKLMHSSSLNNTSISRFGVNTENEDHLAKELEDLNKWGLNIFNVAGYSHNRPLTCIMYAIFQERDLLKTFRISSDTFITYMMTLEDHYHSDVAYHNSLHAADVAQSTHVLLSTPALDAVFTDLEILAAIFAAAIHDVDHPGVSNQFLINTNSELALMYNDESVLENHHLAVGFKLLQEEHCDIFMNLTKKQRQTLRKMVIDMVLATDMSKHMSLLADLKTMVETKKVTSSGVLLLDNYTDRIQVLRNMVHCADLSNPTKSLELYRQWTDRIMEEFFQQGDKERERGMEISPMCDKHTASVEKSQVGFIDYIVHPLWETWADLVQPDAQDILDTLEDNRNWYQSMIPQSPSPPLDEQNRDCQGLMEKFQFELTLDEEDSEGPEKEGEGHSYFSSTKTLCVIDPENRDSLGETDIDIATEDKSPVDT

Compound	inhibition at 1 µM [1] [%]	inhibition at 1 µM [2] [%]
CN1C[C@@H](Nc2nc(N3CCC(c4n[nH]c5ccccc45)CC3)nc3c2[S+]([O-])CC3)CCC1=O (stereo partly shown) [Example 219]	82	–
CN1C[C@@H](Nc2nc(N3CCC(C(=O)N4CCOCC4)(c4ccccc4)CC3)nc3c2[S+]([O-])CC3)CCC1=O (stereo partly shown) [Example 252, 1-Methyl-5-{2-[4-(Morpholine-4-Carbonyl)-4-Phenyl Piperidin-1-Yl]-5-Oxo-6,7-Dihydro-5H-5λ^4-Thieno[3,2-d]Pyrimidin-4-Ylamino}-Piperidin-2-One]	92	–
COc1ccc(C2CCN(c3nc4c(c(NC5(CO)CC5)n3)[S+]([O-])CC4)CC2)cc1 (stereo not shown) [Example 101]	–	94
COC(=O)c1cccc(OC2CCN(c3nc4c(c(NC5CCOCC5)n3)[S+]([O-])CC4)CC2)c1 (stereo not shown) [Example 177]	93	–
Cn1cc(C2CCN(c3nc4c(c(NC5CCOCC5)n3)[S+]([O-])CC4)CC2)c2ccccc21 (stereo not shown) [Example 193]	96	–
COC(=O)c1ccc(C2CCN(c3nc4c(c(NC5(CO)CC5)n3)[S+]([O-])CC4)CC2)cc1 (stereo not shown) [Example 103]	–	95
[O-][S+]1CCc2nc(N3CCC(c4cccc(O)c4)CC3)nc(NC3CCOCC3)c21 (stereo not shown) [Example 61]	–	95
O=C1Nc2ccccc2C2(CCN(c3nc4c(c(Nc5cccc(F)c5)n3)[S+]([O-])CC4)CC2)O1 (stereo not shown) [Example 80]	–	94
[O-][S+]1CCc2nc(N3CCC(c4cc(-c5ccco5)n[nH]4)CC3)nc(Nc3cccc(F)c3)c21 (stereo not shown) [Example 145, (3-Fluorophenyl)-{2-[4-(5-Furan-2-Yl-2H-Pyrazol-3-Yl)-Piperidin-1-Yl]-5-Oxo-6,7-Dihydro-5H-5λ^4-Thieno[3,2-d]Pyrimidin-4-Yl}-Amine Trifluoracetat]	–	96
CN1C[C@@H](Nc2nc(N3CCC(c4cc[n+]([O-])cc4)CC3)nc3c2[S+]([O-])CC3)CCC1=O (stereo partly shown) [Example 196]	94	–
O=C1Nc2ccccc2C2(CCN(c3nc4c(c(NC5(CO)CC5)n3)[S+]([O-])CC4)CC2)O1 (stereo not shown) [Example 36]	–	92
[O-][S+]1CCc2nc(N3CCC(c4n[nH]c5ccccc45)CC3)nc(NC3(CO)CC3)c21 (stereo not shown) [Example 220]	93	–
[O-][S+]1CCc2nc(N3CCC(c4noc5ccc(F)cc45)CC3)nc(NC3CCOCC3)c21 (stereo not shown) [Example 122]	–	96
CC(C)(C)OC(=O)NC1CC1Nc1nc(N2CCC(c3ccc(Cl)cc3)CC2)nc2c1[S+]([O-])CC2 (stereo not shown) [Example 231, tert-butyl (2-{2-[4-(4-chlorophenyl)-piperidin-1-yl]-5-oxo-6,7-dihydro-5H-5λ^4-thieno[3,2-d]pyrimidin-4-ylamino}-cyclopropyl)-carbamidate]	94	–
CN1C[C@@H](Nc2nc(N3CCC(c4nc5cc(F)ccc5o4)CC3)nc3c2[S+]([O-])CC3)CCC1=O (stereo partly shown) [Example 195, 5-{2-[4-(5-fluorobenzoxazol-2-yl)-piperidin-1-yl]-5-oxo-6,7-dihydro-5H-5λ^4-thieno[3,2-d]pyrimidin-4-ylamino}-1-methylpiperidin-2-one]	96	–
O=C(c1ccc(OC2CCN(c3nc4c(c(NC5CCOCC5)n3)[S+]([O-])CC4)CC2)cc1)N(C1CCOCC1)C1CC1 (stereo not shown) [Example 238]	95	–

Compound	inhibition at 1 µM [1] [%]	inhibition at 1 µM [2] [%]
O=C(N1CCc2ccc(OC3CCN(c4nc5c(c(NC6CCOCC6)n4)[S+]([O-])CC5)CC3)cc2CC1)C(F)(F)F (stereo not shown) [Example 182, 2,2,2-Trifluoro-1-(7-{1-[5-Oxo-4-(Tetrahydropyran-4-Ylamino)-6,7-Dihydro-5H-5λ^4-Thieno[3,2-d]Pyrimidin-2-Yl]-Piperidin-4-Yloxy}-1,2,4,5-Tetrahydrobenzo[d]Azepin-3-Yl)-Ethanone]	82	–
[O-][S+]1CCc2nc(N3CCC(O)(c4cc(F)cc(F)c4)CC3)nc(NC3(CO)CC3)c21 (stereo not shown) [Example 33]	–	95
COCC(=O)N(C)CC1(c2ccccc2)CCN(c2nc3c(c(NC4CCOCC4)n2)[S+]([O-])CC3)CC1 (stereo not shown) [Example 323, 2-methoxy-N-methyl-N-{1-[5-oxo-4-(tetrahydropyran-4-ylamino)-6,7-dihydro-5H-5λ^4-thieno[3,2-d]pyrimidin-2-yl]-4-phenylpiperidin-4-ylmethyl}-acetamide]	94	–
[O-][S+]1CCc2nc(N3CCC(O)(c4ccc(Cl)cc4)CC3)nc(Nc3cccc(F)c3)c21 (stereo not shown) [Example 290]	86	–
COC(=O)c1ccc(C2CCN(c3nc4c(c(N[C@@H](CO)C(C)C)n3)[S+]([O-])CC4)CC2)cc1 (stereo partly shown) [Example 150]	–	94
COC1(c2ccc(Cl)cc2)CCN(c2nc3c(c(NC4CCOCC4)n2)[S+]([O-])CC3)CC1 (stereo not shown) [Example 313]	89	–
[O-][S+]1CCc2nc(N3CCC(c4cccc(F)c4)CC3)nc(NC3(CO)CC3)c21 (stereo not shown) [Example 9]	–	95
[O-][S+]1CCc2nc(N3CCC(COCc4ccccc4)(c4ccc(Cl)cc4)CC3)nc(Nc3cccc(F)c3)c21 (stereo not shown) [Example 306, {2-[4-benzyloxymethyl-4-(4-chlorophenyl)-piperidin-1-yl]-5-oxo-6,7-dihydro-5H-5λ^4-thieno[3,2-d]pyrimidin-4-yl}-(3-fluorophenyl)-amine]	89	–
CC(C)c1noc(C2CCN(c3nc4c(c(N[C@H]5CCC(=O)N(C)C5)n3)[S+]([O-])CC4)CC2)n1 (stereo partly shown) [Example 189]	97	–
[O-][S+]1CCc2nc(N3CCC(c4noc5ccc(F)cc45)CC3)nc(Nc3cccc(F)c3)c21 (stereo not shown) [Example 137]	–	95
COC(=O)c1cccc(C2CCN(c3nc4c(c(NC5CCOCC5)n3)[S+]([O-])CC4)CC2)c1 (stereo not shown) [Example 120]	–	95
Cn1nc(C2CCN(c3nc4c(c(NC5CCOCC5)n3)[S+]([O-])CC4)CC2)cc1-c1ccco1 (stereo not shown) [Example 198, {2-[4-(5-furan-2-yl-1-methyl-1H-pyrazol-3-yl)-piperidin-1-yl]-5-oxo-6,7-dihydro-5H-5λ^4-thieno[3,2-d]pyrimidin-4-yl}-(tetrahydropyran-4-yl)-amine]	94	–
[O-][S+]1CCc2nc(N3CCC(c4cccc(O)c4)CC3)nc(Nc3cccc(F)c3)c21 (stereo not shown) [Example 76]	–	97
[O-][S+]1CCc2nc(N3CCC(c4ccc(F)cc4F)CC3)nc(NC3CCOCC3)c21 (stereo not shown) [Example 90, {2-[4-(2,4-Difluorophenyl)-Piperidin-1-Yl]-5-Oxo-6,7-Dihydro-5H-5λ^4-Thieno[3,2-d]Pyrimidin-4-Yl}-(Tetrahydropyran-4-Yl)-Amine]	–	92
[O-][S+]1CCc2nc(N3CCC(Oc4ccc(Cl)c(Cl)c4)CC3)nc(NC3CCOCC3)c21 (stereo not shown) [Example 181]	92	–
[O-][S+]1CCc2nc(N3CCC(c4cccc(Cl)c4)CC3)nc(Nc3cccc(F)c3)c21 (stereo not shown) [Example 84]	–	95

Next, values leading:

inhibition at 1 µM [1] [%]	inhibition at 1 µM [2] [%]	Compound
95	–	CN(C(=O)c1ccc(OC2CCN(c3nc4c(c(NC5CCOCC5)n3)[S+]([O-])CC4)CC2)cc1)C1CCOCC1 (stereo not shown) [Example 237]
–	97	[O-][S+]1CCc2nc(N3CCC(c4noc5ccccc45)CC3)nc(NC3CCOCC3)c21 (stereo not shown) [Example 60]
89	–	[O-][S+]1CCc2nc(N3CCC(CO)(c4ccc(Cl)cc4)CC3)nc(Nc3cccc(F)c3)c21 (stereo not shown) [Example 291]
–	96	CCc1[nH]c2ccc(F)cc2c1C1CCN(c2nc3c(c(N[C@H]4CCC(=O)N(C)C4)n2)[S+]([O-])CC3)CC1 (stereo partly shown) [Example 52]
–	95	[O-][S+]1CCc2nc(N3CCC(c4noc5cc(F)ccc45)CC3)nc(NC3(CO)CC3)c21 (stereo not shown) [Example 105]
–	92	[O-][S+]1CCc2nc(N3CCC(c4ccncc4)CC3)nc(NC3(CO)CC3)c21 (stereo not shown) [Example 34]
–	93	CC(C)[C@H](CO)Nc1nc(N2CCC(c3ccc(Cl)cc3)CC2)nc2c1[S+]([O-])CC2 (stereo partly drawn) [Example 1, (R)-2-{2-[4-(4-chlorophenyl)-piperidin-1-yl]-5-oxo-6,7-dihydro-5H-5λ^4-thieno[3,2-d]pyrimidin-4-ylamino}-3-methylbutan-1-ol]
–	92	Cc1noc(C2CCN(c3nc4c(c(NC5(CO)CC5)n3)[S+]([O-])CC4)CC2)n1 (stereo not shown) [Example 38]
–	96	N#Cc1cccc(C2CCN(c3nc4c(c(Nc5cccc(F)c5)n3)[S+]([O-])CC4)CC2)c1 (stereo not shown) [Example 138]
92	–	Cc1nn(C)c(C)c1CNC(=O)c1cccc(C2CCN(c3nc4c(c(NC5CCOCC5)n3)[S+]([O-])CC4)CC2)c1 (stereo not shown) [Example 250]
–	94	CCC[C@H](CO)Nc1nc(N2CCC(c3ccc(Cl)cc3)CC2)nc2c1[S+]([O-])CC2 (stereo partly drawn) [Example 3, (R)-2-{2-[4-(4-chlorophenyl)-piperidin-1-yl]-5-oxo-6,7-dihydro-5H-5λ^4-thieno[3,2-d]pyrimidin-4-ylamino}-pentan-1-ol]
–	71	CC(C)[C@H](CO)Nc1nc(N2CCC(c3c[nH]cn3)CC2)nc2c1[S+]([O-])CC2 (stereo partly shown) [Example 13]
92	–	CN1C[C@@H](Nc2nc(N3CCC(O)(c4ccc(Cl)cc4)CC3)nc3c2[S+]([O-])CC3)CCC1=O (stereo partly shown) [Example 254]
–	94	[O-][S+]1CCc2nc(N3CCC(c4nc(-c5cccnc5)no4)CC3)nc(NC3(CO)CC3)c21 (stereo not shown) [Example 115]
89	–	O=C(c1ccc(F)cc1)C1(c2ccc(F)cc2)CCN(c2nc3c(c(NC4(CO)CC4)n2)[S+]([O-])CC3)CC1 (stereo not shown) [Example 308]
77	–	COC1CCN(c2nc3c(c(NC4CCOCC4)n2)[S+]([O-])CC3)CC1 (stereo not shown) [Example 170]
–	95	[O-][S+]1CCc2nc(N3CCC(c4nnc(-c5ccc(F)cc5)o4)CC3)nc(NC3(CO)CC3)c21 (stereo not shown) [Example 112]
89	–	[O-][S+]1CCc2nc(N3CCC(Oc4ccc(F)c(F)c4)CC3)nc(NC3CCOCC3)c21 (stereo not shown) [Example 175]
–	95	[O-][S+]1CCc2nc(N3CCC(c4nnc(-c5ccc(F)cc5)o4)CC3)nc(Nc3cccc(F)c3)c21 (stereo not shown) [Example 143]
81	–	CC(C)[C@H](CO)Nc1nc(N2CCC(O)(c3ccc(Cl)cc3)CC2)nc2c1[S+]([O-])CC2 (stereo partly shown) [Example 296]
